According to patent publication US4442044A, “Process for preparing monoesters and diesters of N-alkyl substituted amino methyl phosphonic acid” (priority 1983, dated 1984):

How the values were obtained:
Test in all cases: post-emergent herbicidal activity, greenhouse
Type in all cases: in vivo
Downy Brome = tested on: Downy Brome
Summary of the method: (§1)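 Seeds or propagules sown in compacted top soil, grown 2–3 weeks in greenhouse, then sprayed with compound solution/suspension containing ~0.4% emulsifier at tabulated rates. Injury scored visually versus untreated controls at ~2 and 4 weeks after treatment, expressed as a herbicidal activity index.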

Panicum Spp = details: Table II
Summary of the method: as §1

Smartweed = tested on: Smartweed
Summary of the method: as §1

Velvetleaf = tested on: Velvetleaf
Summary of the method: as §1

Wheat = details: Table II
Summary of the method: as §1

Soybean = details: Table II
Summary of the method: as §1

Sorghum = details: Table II
Summary of the method: as §1

Quackgrass = details: Table I, 4 WAT
Summary of the method: as §1

Lambsquarters = tested on: Lambsquarters
Summary of the method: as §1

Cocklebur = tested on: Cocklebur
Summary of the method: as §1

Rice = details: Table II
Summary of the method: as §1

Barnyardgrass = tested on: Barnyardgrass
Summary of the method: as §1

Johnsongrass = details: Table I, 4 WAT
Summary of the method: as §1

Yellow Nutsedge = details: Table I, 4 WAT
Summary of the method: as §1

Wild Buckwheat = details: Table II
Summary of the method: as §1

Sugar Beet = details: Table II
Summary of the method: as §1

Canada Thistle = details: Table I, 4 WAT
Summary of the method: as §1

Crabgrass = details: Table II
Summary of the method: as §1

Hemp Sesbania = details: Table II
Summary of the method: as §1

Morningglory = tested on: Morningglory
Summary of the method: as §1

Measured: post-emergent herbicidal activity index

CCOC(=O)CNCP(=O)(O)OCC(Cl)(Cl)Cl [Example 27, glycine, N-[[hydroxy(2,2,2-trichloroethoxy)-phosphinyl]methyl]-, ethyl ester]
0 (0-24% control): Downy Brome; Table I, 4 WAT, 5.6 kg/h | Downy Brome; Table I, 4 WAT, 11.2 kg/h | Downy Brome; Table II, 2 WAT, 0.01 kg/h | Downy Brome; Table II, 2 WAT, 0.06 kg/h | Panicum Spp; 2 WAT, 0.01 kg/h | Panicum Spp; 2 WAT, 0.06 kg/h | Smartweed; Table II, 2 WAT, 0.01 kg/h | Smartweed; Table II, 2 WAT, 0.06 kg/h | Velvetleaf; Table II, 2 WAT, 0.01 kg/h | Velvetleaf; Table II, 2 WAT, 0.06 kg/h | Wheat; 2 WAT, 0.01 kg/h | Wheat; 2 WAT, 0.06 kg/h | Soybean; 2 WAT, 0.01 kg/h | Soybean; 2 WAT, 0.06 kg/h | Sorghum; 2 WAT, 0.01 kg/h | Sorghum; 2 WAT, 0.06 kg/h | Lambsquarters; Table II, 2 WAT, 0.01 kg/h | Lambsquarters; Table II, 2 WAT, 0.06 kg/h | Cocklebur; Table II, 2 WAT, 0.01 kg/h | Cocklebur; Table II, 2 WAT, 0.06 kg/h | Rice; 2 WAT, 0.01 kg/h | Rice; 2 WAT, 0.06 kg/h | Barnyardgrass; Table II, 2 WAT, 0.01 kg/h | Barnyardgrass; Table II, 2 WAT, 0.06 kg/h | Johnsongrass; 11.2 kg/h | Yellow Nutsedge; 5.6 kg/h | Wild Buckwheat; 2 WAT, 0.01 kg/h | Wild Buckwheat; 2 WAT, 0.06 kg/h | Sugar Beet; 2 WAT, 0.01 kg/h | Sugar Beet; 2 WAT, 0.06 kg/h | Hemp Sesbania; 2 WAT, 0.01 kg/h | Hemp Sesbania; 2 WAT, 0.06 kg/h | Morningglory; Table II, 2 WAT, 0.01 kg/h | Morningglory; Table II, 2 WAT, 0.06 kg/h
3 (75-99% control): Downy Brome; Table II, 4 WAT, 0.28 kg/h | Downy Brome; Table II, 4 WAT, 1.12 kg/h | Downy Brome; Table II, 4 WAT, 5.6 kg/h | Panicum Spp; 4 WAT, 0.28 kg/h | Smartweed; Table II, 4 WAT, 0.28 kg/h | Smartweed; Table II, 4 WAT, 5.6 kg/h | Wheat; 4 WAT, 0.28 kg/h | Soybean; 4 WAT, 5.6 kg/h | Sorghum; 4 WAT, 5.6 kg/h | Lambsquarters; Table I, 4 WAT, 5.6 kg/h | Lambsquarters; Table I, 4 WAT, 11.2 kg/h | Lambsquarters; Table II, 4 WAT, 5.6 kg/h | Cocklebur; Table II, 4 WAT, 5.6 kg/h | Rice; 4 WAT, 0.28 kg/h | Rice; 4 WAT, 1.12 kg/h | Rice; 4 WAT, 5.6 kg/h | Barnyardgrass; Table I, 4 WAT, 5.6 kg/h | Barnyardgrass; Table I, 4 WAT, 11.2 kg/h | Barnyardgrass; Table II, 4 WAT, 0.28 kg/h | Barnyardgrass; Table II, 4 WAT, 1.12 kg/h | Barnyardgrass; Table II, 4 WAT, 5.6 kg/h | Sugar Beet; 4 WAT, 5.6 kg/h | Crabgrass; 4 WAT, 1.12 kg/h | Hemp Sesbania; 4 WAT, 5.6 kg/h
2 (50-74% control): Smartweed; Table I, 4 WAT, 5.6 kg/h | Smartweed; Table I, 4 WAT, 11.2 kg/h | Smartweed; Table II, 4 WAT, 1.12 kg/h | Velvetleaf; Table I, 4 WAT, 11.2 kg/h | Wheat; 4 WAT, 1.12 kg/h | Soybean; 4 WAT, 0.28 kg/h | Soybean; 4 WAT, 1.12 kg/h | Sorghum; 4 WAT, 0.28 kg/h | Sorghum; 4 WAT, 1.12 kg/h | Lambsquarters; Table II, 4 WAT, 1.12 kg/h | Cocklebur; Table I, 4 WAT, 5.6 kg/h | Cocklebur; Table I, 4 WAT, 11.2 kg/h | Cocklebur; Table II, 4 WAT, 0.28 kg/h | Cocklebur; Table II, 4 WAT, 1.12 kg/h | Johnsongrass; 5.6 kg/h | Yellow Nutsedge; 11.2 kg/h | Wild Buckwheat; 4 WAT, 0.28 kg/h | Wild Buckwheat; 4 WAT, 1.12 kg/h | Wild Buckwheat; 4 WAT, 5.6 kg/h | Sugar Beet; 4 WAT, 0.28 kg/h | Sugar Beet; 4 WAT, 1.12 kg/h | Canada Thistle; 11.2 kg/h | Hemp Sesbania; 4 WAT, 1.12 kg/h | Morningglory; Table I, 4 WAT, 5.6 kg/h | Morningglory; Table I, 4 WAT, 11.2 kg/h | Morningglory; Table II, 4 WAT, 0.28 kg/h | Morningglory; Table II, 4 WAT, 1.12 kg/h | Morningglory; Table II, 4 WAT, 5.6 kg/h
1 (25-49% control): Velvetleaf; Table I, 4 WAT, 5.6 kg/h | Velvetleaf; Table II, 4 WAT, 0.28 kg/h | Velvetleaf; Table II, 4 WAT, 1.12 kg/h | Velvetleaf; Table II, 4 WAT, 5.6 kg/h | Quackgrass; 5.6 kg/h | Quackgrass; 11.2 kg/h | Lambsquarters; Table II, 4 WAT, 0.28 kg/h | Canada Thistle; 5.6 kg/h | Hemp Sesbania; 4 WAT, 0.28 kg/h
4 (100% control): Panicum Spp; 4 WAT, 1.12 kg/h | Panicum Spp; 4 WAT, 5.6 kg/h | Wheat; 4 WAT, 5.6 kg/h | Crabgrass; 4 WAT, 5.6 kg/h

CCOC(=O)CNCP(=O)(O)OC(C)C(=O)OC (stereo not drawn) [Example 28, propanoic acid, 2-[[[[(2-ethoxy-2-oxoethyl)amino]methyl]hydroxyphosphinyl]oxy]-, methyl ester]
2 (50-74% control): Panicum Spp; 4 WAT, 5.6 kg/h | Velvetleaf; Table I, 4 WAT, 11.2 kg/h | Sorghum; 4 WAT, 5.6 kg/h | Quackgrass; 11.2 kg/h | Cocklebur; Table I, 4 WAT, 11.2 kg/h | Cocklebur; Table II, 4 WAT, 5.6 kg/h | Rice; 4 WAT, 5.6 kg/h | Barnyardgrass; Table I, 4 WAT, 5.6 kg/h | Barnyardgrass; Table I, 4 WAT, 11.2 kg/h | Johnsongrass; 5.6 kg/h | Crabgrass; 2 WAT, 1.12 kg/h | Morningglory; Table II, 4 WAT, 5.6 kg/h
3 (75-99% control): Smartweed; Table I, 4 WAT, 11.2 kg/h | Lambsquarters; Table I, 4 WAT, 11.2 kg/h | Barnyardgrass; Table II, 4 WAT, 5.6 kg/h | Johnsongrass; 11.2 kg/h | Yellow Nutsedge; 11.2 kg/h | Crabgrass; 4 WAT, 5.6 kg/h | Hemp Sesbania; 4 WAT, 5.6 kg/h | Morningglory; Table I, 4 WAT, 11.2 kg/h
1 (25-49% control): Downy Brome; Table I, 4 WAT, 5.6 kg/h | Downy Brome; Table I, 4 WAT, 11.2 kg/h | Smartweed; Table II, 4 WAT, 5.6 kg/h | Wheat; 4 WAT, 5.6 kg/h | Soybean; 2 WAT, 1.12 kg/h | Soybean; 4 WAT, 5.6 kg/h | Lambsquarters; Table II, 4 WAT, 5.6 kg/h | Cocklebur; Table I, 4 WAT, 5.6 kg/h | Barnyardgrass; Table II, 2 WAT, 1.12 kg/h | Yellow Nutsedge; 5.6 kg/h | Canada Thistle; 5.6 kg/h | Canada Thistle; 11.2 kg/h | Morningglory; Table I, 4 WAT, 5.6 kg/h | Morningglory; Table II, 2 WAT, 1.12 kg/h
0 (0-24% control): Downy Brome; Table II, 2 WAT, 1.12 kg/h | Downy Brome; Table II, 4 WAT, 5.6 kg/h | Panicum Spp; 2 WAT, 1.12 kg/h | Smartweed; Table I, 4 WAT, 5.6 kg/h | Smartweed; Table II, 2 WAT, 1.12 kg/h | Velvetleaf; Table I, 4 WAT, 5.6 kg/h | Velvetleaf; Table II, 2 WAT, 1.12 kg/h | Velvetleaf; Table II, 4 WAT, 5.6 kg/h | Wheat; 2 WAT, 1.12 kg/h | Sorghum; 2 WAT, 1.12 kg/h | Quackgrass; 5.6 kg/h | Lambsquarters; Table I, 4 WAT, 5.6 kg/h | Lambsquarters; Table II, 2 WAT, 1.12 kg/h | Cocklebur; Table II, 2 WAT, 1.12 kg/h | Rice; 2 WAT, 1.12 kg/h | Wild Buckwheat; 2 WAT, 1.12 kg/h | Wild Buckwheat; 4 WAT, 5.6 kg/h | Sugar Beet; 2 WAT, 1.12 kg/h | Sugar Beet; 4 WAT, 5.6 kg/h | Hemp Sesbania; 2 WAT, 1.12 kg/h
